Test results taken from US7666879B2, “Imidazo[1,2-A]pyridine compounds as VEGF-R2 inhibitors” (Eli Lilly and Company, priority 2005, dated 2010).

Columns and labels:
VEGFR2 (KDR) = molecular target: T1, VEGFR2 (KDR) (Homo sapiens, UniProt P35968); test: KDR-CD in vitro autophosphorylation kinase assay; format: biochemical; settings: 30 minute preincubation of compound and enzyme; average of at least two separate determinations; 1 μM ATP
T1 construct: The isolated catalytic domain (Amino Acids 807-1356) of VEGFR2; 6xHis (N); made in house; host or cells: Sf9 insect cells (baculovirus, pFASTBac-HIS)
Experimental: The following assay is performed to measure the IC50 values of inhibition of phosphorylation of VEGF-R2 with compounds of the present invention.
Autophosphorylation Enzyme Assay
A. VEGFR2 (KDR) cloning and purification.
The isolated catalytic domain (Amino Acids 807-1356) of VEGFR2 (KDR-CD, cloned from a human heart cDNA library) is cloned by standard PCR procedures (pCR-Script to make plasmid P340) as a BamHI/HindIII fragment using the following primers: Upper: 5′-[…]-3′ and Lower: 5′-[…]-3′, its nucleotide sequence is verified and it is subcloned into the pFASTBac-HIS™ vector system (Gibco-BRL) (to give plasmid B344) for baculovirus expression. (Carroll, et al., J. Biol. Chem, 268, 12837-42 (1993). KDR-CD is expressed as an N-terminal 6×HIS fusion protein in Sf9 cells (Gibco-BRL) and purified according to standard affinity chromatography protocols (For example, Amersham Pharmacia Biotech: Affinity Chromatography Principles and Methods #18-1022-29). Briefly, 15-25 g pellets are lysed in lysis buffer (50 mM Tris pH 7.5, 150 mM NaCl, 0.5% NP40 (CalbioChem) with freshly added 20 mM -mercaptoethanol, 10 mM imidazole, 1 mM PMSF(protease inhibitor (phenylmethanesulfonyl fluoride) from Sigma), 1×EDTA-free complete protease inhibitor (Boehringer Mannheim)) on ice for 30 minutes. The cell lysates are cleared by centrifugation at 30,000 g for 20 minutes at 4° C., filtered through a […] and applied to a NiNTA™ column (Qiagen). Unbound protein is removed with successive RIPA buffer washes (50 mM Tris pH 7.5, 150 mM NaCl, 1% NP40, 1 mM EDTA, 0.25% sodium deoxycholate, 20 mM -mercaptoethanol), lysis buffer washes and finally 1× kinase buffer (KB) washes (100 mM HEPES pH 7.5, 10 mM MnCl2, 5 mM -mercaptoethanol). KDR protein is eluted in 1× KB containing a linear gradient of 200 mM imidazole over 10 column volumes. The peak fractions (based on a SDS-PAGE gel analysis) are combined, concentrated by Centricon™ to ˜1 mg/mL and desalted over an HR26/10 desalting column (Amersham Pharmacia) in 1× KB. This KDR prep is estimated to be ˜40% pure with only KDR tyrosine kinase activity detectable by anti-phosphotyrosine western analysis following the in vitro autophosphorylation reaction.
B. KDR-CD In Vitro Autophosphorylation Kinase Assay
Kinase reactions contain 1 μg total protein in 40 μL reaction volume containing 4% (v/v) DMSO final concentration, 1 μM ATP, 1 uCi/rxn ^33P-ATP (from NEN) in 1×KB. A compound dilution series of 20 μM to 1.0 nM is added to the above reaction to determine compound activity; test compound may be pre-incubated with KDR enzyme for up to 30 minutes at 30° C. prior to addition of the radiolabel. The radiolabeling reaction is carried out at 30° C. for 20 minutes before adding 100 μL 25% TCA with 3 mM ATP to stop the reaction, then precipitated with 50 μL 1 mg/mL BSA. The quenched reactions are transferred to MultiScreen™-FC plates (Millipore) and incubated for 1 hour at room temperature. The plates are filtered, washed 3× with 250 μL 10% TCA and blotted dry. MicroScint™20 (Packard) is added and the plate is counted on a Wallac Microbeta™. Dougher-Vermazen, M. et al., Biochem Biophys Res Commun 205(1): 728-738 (1994). The IC50 values are calculated from a logistic 4-parameter curve fit.
All values are determined using a 30 minute preincubation of compound and enzyme prior to initiating the labeling reaction and represent the average of at least two separate determinations: […]

[1] = tested on: PC-3 human prostate adenocarcinoma cells; test: In vivo efficacy in PC-3 prostate tumor xenografts; set-up: species or system mice; key to Mean Tumor Volume: mg, volume calculated as l×w^2×0.536 from caliper diameters; settings: for Signif. (tumor volume vs vehicle control, two-way ANOVA) / Mean Tumor Volume: oral gavage
Experimental: In Vivo Efficacy in PC-3 Prostate Tumor Xenografts
Male SCID mice (Fox Chase, Taconic laboratories) are implanted s.c. in the rear flank with 0.2 mL of a cell suspension prepared in serum-free media containing 5×10^6 PC-3 human prostate adenocarcinoma cells (obtained from ATCC). Example 130 is prepared as a suspension in 1% CMC/0.25% Tween 80 and administered by oral gavage for 21 days beginning after tumors reach approximately 150-200 mg (volume calculated by l×w^2×0.536 where l is the larger and w is the smaller of perpendicular diameters determined by caliper measurement). Example 130 is administered twice daily (12 hours apart) for the 15, 7.5, and 3.75 mg/kg doses while the 30 mg/kg dose is given once daily. Groups consists of 8 mice each and one group receives 0.2 mL of the CMC/Tween vehicle twice daily as a control.

T1 sequence (P35968 807-1356): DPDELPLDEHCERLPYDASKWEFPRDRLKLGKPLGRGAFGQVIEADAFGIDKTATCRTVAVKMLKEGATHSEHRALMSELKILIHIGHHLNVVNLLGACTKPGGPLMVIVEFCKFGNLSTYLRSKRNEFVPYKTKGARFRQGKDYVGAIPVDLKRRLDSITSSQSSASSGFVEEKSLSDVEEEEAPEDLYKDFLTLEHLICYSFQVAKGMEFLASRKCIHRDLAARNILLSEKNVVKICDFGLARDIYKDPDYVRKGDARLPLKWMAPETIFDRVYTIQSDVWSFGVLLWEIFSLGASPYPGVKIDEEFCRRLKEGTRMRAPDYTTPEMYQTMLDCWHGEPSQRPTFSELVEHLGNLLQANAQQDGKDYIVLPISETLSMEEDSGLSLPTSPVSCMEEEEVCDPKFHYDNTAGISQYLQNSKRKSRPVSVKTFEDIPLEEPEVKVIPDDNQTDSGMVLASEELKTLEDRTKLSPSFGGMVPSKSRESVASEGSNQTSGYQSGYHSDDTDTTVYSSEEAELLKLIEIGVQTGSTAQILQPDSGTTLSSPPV

CC(C)(C)c1cnc(NC(=O)NCc2ccc(-c3cnc4cc(-c5ccncc5)ccn34)cc2)s1 [Example 39, 1-(5-tert-Butyl-thiazol-2-yl)-3-[4-(7-pyridin-4-yl-imidazo[1,2-a]pyridin-3-yl)-benzyl]-urea, methane sulfonate]
IC50 (VEGFR2 (KDR)): 28 nM

CC(C)(C)c1cc(NC(=O)Nc2ccc(-c3cnc4cc(-c5ccncc5)ccn34)cc2F)no1 [Example 130, 1-(5-tert-Butyl-isoxazol-3-yl)-3-[2-fluoro-4-(7-pyridin-4-yl-imidazo[1,2-a]pyridin-3-yl)-phenyl]-urea]
Signif. (tumor volume vs vehicle control, two-way ANOVA) ([1]; 3.75 mg/kg twice daily, Day 55): ** (**: 0.001 < p <= 0.01) | Mean Tumor Volume ([1]; 3.75 mg/kg twice daily, Day 55, PC-3 xenograft in male SCID mice): 268.1 | Signif. (tumor volume vs vehicle control, two-way ANOVA) ([1]; 3.75 mg/kg twice daily, Day 57): *** (***: p <= 0.001) | Mean Tumor Volume ([1]; 3.75 mg/kg twice daily, Day 57, PC-3 xenograft in male SCID mice): 310.1 | Signif. (tumor volume vs vehicle control, two-way ANOVA) ([1]; 7.5 mg/kg twice daily, Day 55): *** (***: p <= 0.001) | Mean Tumor Volume ([1]; 7.5 mg/kg twice daily, Day 55, PC-3 xenograft in male SCID mice): 100.8 | Signif. (tumor volume vs vehicle control, two-way ANOVA) ([1]; 7.5 mg/kg twice daily, Day 57): *** (***: p <= 0.001) | Mean Tumor Volume ([1]; 7.5 mg/kg twice daily, Day 57, PC-3 xenograft in male SCID mice): 86.3 | Signif. (tumor volume vs vehicle control, two-way ANOVA) ([1]; 15 mg/kg twice daily, Day 55): *** (***: p <= 0.001) | Mean Tumor Volume ([1]; 15 mg/kg twice daily, Day 55, PC-3 xenograft in male SCID mice): 67.7 | Signif. (tumor volume vs vehicle control, two-way ANOVA) ([1]; 15 mg/kg twice daily, Day 57): *** (***: p <= 0.001) | Mean Tumor Volume ([1]; 15 mg/kg twice daily, Day 57, PC-3 xenograft in male SCID mice): 62.2 | Signif. (tumor volume vs vehicle control, two-way ANOVA) ([1]; 30 mg/kg once daily, Day 55): *** (***: p <= 0.001) | Mean Tumor Volume ([1]; 30 mg/kg once daily, Day 55, PC-3 xenograft in male SCID mice): 95.7 | Signif. (tumor volume vs vehicle control, two-way ANOVA) ([1]; 30 mg/kg once daily, Day 57): *** (***: p <= 0.001) | Mean Tumor Volume ([1]; 30 mg/kg once daily, Day 57, PC-3 xenograft in male SCID mice): 86.8 | tumor volume, treatment groups versus control group at study termination ([1]; male SCID mice, oral gavage for 21 days, 15, 7.5, 3.75 mg/kg twice daily, 30 mg/kg once daily, two-way ANOVA): statistically different from the control group (p<0.001) | IC50 (VEGFR2 (KDR)): 42 nM

O=C(Cc1ccc(-c2cnc3cc(-c4ccncc4)ccn23)cc1)Nc1cccc(C(F)(F)F)c1 [Example 173, 2-[4-(7-Pyridin-4-yl-imidazo[1,2-a]pyridin-3-yl)-phenyl]-N-(3-trifluoromethyl-phenyl)-acetamide]
IC50 (VEGFR2 (KDR)): 26 nM

CC(C)(C)c1cc(NC(=O)Cc2ccc(-c3cnc4cc(-c5ccc(S(C)(=O)=O)cc5)ccn34)cc2F)no1 [Example 196, N-(5-tert-Butyl-isoxazol-3-yl)-2-{2-fluoro-4-[7-(4-methanesulfonyl-phenyl)-imidazo[1,2-a]pyridin-3-yl]-phenyl}-acetamide]
IC50 (VEGFR2 (KDR)): 106 nM

CC(C)(C)c1cc(NC(=O)Cc2ccc(-c3cnc4cc(-c5ccncc5)ccn34)cc2)ncn1 [Example 289, N-(6-tert-Butyl-pyrimidin-4-yl)-2-[4-(7-pyridin-4-yl-imidazo[1,2-a]pyridin-3-yl)-phenyl]-acetamide]
IC50 (VEGFR2 (KDR)): 41 nM

CC(C)(C)c1cc(NC(=O)Cc2ccc(-c3cnc4cc(-c5cn[nH]c5)ccn34)cc2)no1 [Example 303, N-(5-tert-Butyl-isoxazol-3-yl)-2-{4-[7-(1H-pyrazol-4-yl)-imidazo[1,2-a]pyridin-3-yl]-phenyl}-acetamide]
IC50 (VEGFR2 (KDR)): 46 nM
